# Values of other authors as cited in patent publication US20120149711A1, “PIPERIDINE DERIVATIVES USED AS OREXIN ANTAGONISTS” (Glaxo Group Limited, priority 2009, published 2012).
# No end group written: not given here.
# System: freely-feeding rats
# Conditions: central administration, 4 hour time period
substance,measurement,value
"orexin-A: ligand for the orexin-1 receptor; an agonist of the orexin receptors (QPLPDCCRQKTCSCRLYELLHGAGNHAAGILTL; ends and bridges not checked; cysteine pairing not given here; UniProt O43612 34-66, looked up)",increase of food intake over control rats receiving vehicle,approximately four-fold
